Like-named read-outs stand apart in the source and are kept apart here.

Test [1] relates to Mycosphaerella graminicola; Anamorph: Septoria tritici. The experiment in a line: Leaf blotch of wheat (SEPTTR) disease control on wheat seedlings. In kind it is in vivo. The settings on record: Zymoseptoria tritici, High volume application, 100 ppm. How it is done:
Technical grades of materials were dissolved in acetone, which were then mixed with nine volumes of water containing 110 ppm Triton X-100. The fungicide solutions were applied onto wheat seedlings using an automated booth sprayer to run-off. All sprayed plants were allowed to air dry prior to further handling. All fungicides were evaluated using the aforementioned method for their activity vs. all target diseases. Wheat leaf blotch and brown rust activity were also evaluated using track spray applications, in which case the fungicides were formulated as EC formulations, containing 0.1% Trycol 5941 in the spray solutions. Wheat plants (variety Yuma) were grown from seed in a greenhouse in 50% mineral soil/50% soil-less Metro mix until the first leaf was fully emerged, with 7-10 seedlings per pot. These plants were inoculated with an aqueous spore suspension of Septoria tritici either prior to or after fungicide treatments. After inoculation the plants were kept in 100% relative humidity (one day in a dark dew chamber followed by two to three days in a lighted dew chamber at 20° C.) to permit spores to germinate and infect the leaf. The plants were then transferred to a greenhouse set at 20° C. for disease to develop. When disease symptoms were fully expressed on the 1st leaves of untreated plants, infection levels were assessed on a scale of 0 to 100 percent disease severity. Percent disease control was calculated using the ratio of disease severity on treated plants relative to untreated plants.

Test [2] deals with Puccinia triticina; Synonym: Puccinia recondite f. sp. tritici. Description: Wheat brown rust (PUCCRT) disease control on wheat seedlings. In kind it is in vivo. The settings on record: Puccinia triticina, High volume application, 100 ppm. As for the experimental part:
Technical grades of materials were dissolved in acetone, which were then mixed with nine volumes of water containing 110 ppm Triton X-100. The fungicide solutions were applied onto wheat seedlings using an automated booth sprayer to run-off. All sprayed plants were allowed to air dry prior to further handling. All fungicides were evaluated using the aforementioned method for their activity vs. all target diseases. Wheat leaf blotch and brown rust activity were also evaluated using track spray applications, in which case the fungicides were formulated as EC formulations, containing 0.1% Trycol 5941 in the spray solutions. Wheat plants (variety Yuma) were grown from seed in a greenhouse in 50% mineral soil/50% soil-less Metro mix until the first leaf was fully emerged, with 7-10 seedlings per pot. These plants were inoculated with an aqueous spore suspension of Puccinia triticina either prior to or after fungicide treatments. After inoculation the plants were kept in a dark dew room at 22° C. with 100% relative humidity overnight to permit spores to germinate and infect the leaf. The plants were then transferred to a greenhouse set at 24° C. for disease to develop. Fungicide formulation, application and disease assessment followed the procedures as described in the Example A.

Setting [3] is: 24 h, 1 Day Protectant, read-out: SEPTTR 1DP disease control.
Where [4] appears, read: 72 h, 3 Day Curative, read-out: SEPTTR 3DC disease control.
Where [5] appears, read: 24 h, 1 Day Protectant, read-out: PUCCRT 1DP disease control.
The mark [6] stands for this setting: 72 h, 3 Day Curative, read-out: PUCCRT 3DC disease control.

For the compound `COc1ccnc(C(=O)N[C@H]2CCC[C@H](OCCCC(F)(F)F)[C@@H](OCCCC(F)(F)F)[C@H](C)OC2=O)c1OCOC(=O)C(C)C` [F100], the pest or weed control at 100 ppm in test [1] (setting [3]), in test [1] (setting [4]), in test [2] (setting [5]) and in test [2] (setting [6]) was 80 to 100% throughout.
`COc1ccnc(C(=O)N[C@H]2CCC[C@H](OCC(C)C)[C@@H](Oc3ccc(C)cc3)[C@H](C)OC2=O)c1OCOC(=O)C(C)C` [F101]: the pest or weed control at 100 ppm in test [1] (setting [3]), in test [1] (setting [4]), in test [2] (setting [5]) and in test [2] (setting [6]) was 80 to 100% each time.
Take `CCCO[C@H]1[C@H](C)OC(=O)[C@@H](NC(=O)c2nccc(OC)c2OC(C)=O)CCC[C@@H]1Oc1ccccc1` [F102]: the pest or weed control at 100 ppm in test [1] (setting [3]), in test [1] (setting [4]), in test [2] (setting [5]) and in test [2] (setting [6]) was 80 to 100% in each case.
As to `CCCCCO[C@H]1[C@H](C)OC(=O)[C@@H](NC(=O)c2nccc(OC)c2OC(C)=O)CCC[C@@H]1Oc1ccccc1` [F103], the pest or weed control at 100 ppm in test [1] (setting [3]), in test [1] (setting [4]), in test [2] (setting [5]) and in test [2] (setting [6]) was 80 to 100% each time.
For `COc1ccnc(C(=O)N[C@H]2CCC[C@H](Oc3ccccc3)[C@@H](OC/C=C/C(F)(F)F)[C@H](C)OC2=O)c1O` [F104], the pest or weed control at 100 ppm in test [1] (setting [3]) was 80 to 100%; in test [1] (setting [4]), < 0%; in test [2] (setting [5]) it was 80 to 100%; in test [2] (setting [6]), < 0%.
For the compound `COc1ccnc(C(=O)N[C@H]2CCC[C@H](Oc3ccccc3)[C@@H](OCCCC(F)(F)F)[C@H](C)OC2=O)c1O` [F105], the pest or weed control at 100 ppm in test [1] (setting [3]) is 80 to 100%; in test [1] (setting [4]), 0 to 80%; in test [2] (setting [5]), 80 to 100%; in test [2] (setting [6]), < 0%.
For `COc1ccnc(C(=O)N[C@H]2CCC[C@H](Oc3ccccc3)[C@@H](OC/C=C/C(F)(F)F)[C@H](C)OC2=O)c1OCOC(C)=O` [F106], the pest or weed control at 100 ppm in test [1] (setting [3]), in test [1] (setting [4]), in test [2] (setting [5]) and in test [2] (setting [6]) was 80 to 100% in each case.
Consider `COc1ccnc(C(=O)N[C@H]2CCC[C@H](Oc3ccccc3)[C@@H](OCCCC(F)(F)F)[C@H](C)OC2=O)c1OCOC(C)=O` [F107], for which the pest or weed control at 100 ppm in test [1] (setting [3]), in test [1] (setting [4]), in test [2] (setting [5]) and in test [2] (setting [6]) was 80 to 100% in each case.
Turning to `COc1ccnc(C(=O)N[C@H]2CCC[C@H](Oc3ccccc3)[C@@H](OCCCC(F)(F)F)[C@H](C)OC2=O)c1OCOC(=O)C(C)C` [F108], the pest or weed control at 100 ppm in test [1] (setting [3]), in test [1] (setting [4]), in test [2] (setting [5]) and in test [2] (setting [6]) was 80 to 100% in each case.
For the compound `COc1ccnc(C(=O)N[C@H]2CCC[C@H](Oc3ccccc3)[C@@H](OCCCC(F)(F)F)[C@H](C)OC2=O)c1OC(C)=O` [F109], the pest or weed control at 100 ppm in test [1] (setting [3]), in test [1] (setting [4]), in test [2] (setting [5]) and in test [2] (setting [6]) was 80 to 100% throughout.
Turning to `COCCC(=O)Oc1c(OC)ccnc1C(=O)N[C@H]1CCC[C@H](Oc2ccccc2)[C@@H](OCCCC(F)(F)F)[C@H](C)OC1=O` [F110], the pest or weed control at 100 ppm in test [1] (setting [3]), in test [1] (setting [4]), in test [2] (setting [5]) and in test [2] (setting [6]) was 80 to 100% throughout.
With `COc1ccnc(C(=O)N[C@H]2CCC[C@H](Oc3ccccc3)[C@@H](OCCCc3ccccc3)[C@H](C)OC2=O)c1O` [F111], the pest or weed control at 100 ppm was 0 to 80% in test [1] (setting [3]), 0 to 80% in test [1] (setting [4]), 80 to 100% in test [2] (setting [5]) and < 0% in test [2] (setting [6]).
For the compound `COc1ccnc(C(=O)N[C@H]2CCC[C@H](Oc3ccccc3)[C@@H](OCCCc3ccccc3)[C@H](C)OC2=O)c1OCOC(=O)C(C)C` [F112], the pest or weed control at 100 ppm in test [1] (setting [3]), in test [1] (setting [4]), in test [2] (setting [5]) and in test [2] (setting [6]) was 80 to 100% throughout.
For `COc1ccnc(C(=O)N[C@H]2CCC[C@H](Oc3ccc(C)cc3)[C@@H](Oc3ccc(C)cc3)[C@H](C)OC2=O)c1O` [F113], the pest or weed control at 100 ppm in test [1] (setting [3]) is < 0%; in test [1] (setting [4]) it was 0 to 80%; in test [2] (setting [5]), 0 to 80%; in test [2] (setting [6]) it was 0 to 80%.
In the case of `CCCO[C@H]1[C@H](C)OC(=O)[C@@H](NC(=O)c2nccc(OC)c2O)CCC[C@@H]1OCCC` [F114], the pest or weed control at 100 ppm in test [1] (setting [3]), in test [1] (setting [4]), in test [2] (setting [5]) and in test [2] (setting [6]) was 80 to 100% each time.
As to `COc1ccnc(C(=O)N[C@H]2CCC[C@H](Oc3ccc(C)cc3)[C@@H](Oc3ccc(C)cc3)[C@H](C)OC2=O)c1OCOC(C)=O` [F115], the pest or weed control at 100 ppm in test [1] (setting [3]) lay in the range of 80 to 100%; in test [1] (setting [4]), 0 to 80%; in test [2] (setting [5]) it was 80 to 100%; in test [2] (setting [6]), 0 to 80%.
For `CCCO[C@H]1[C@H](C)OC(=O)[C@@H](NC(=O)c2nccc(OC)c2OCOC(C)=O)CCC[C@@H]1OCCC` [F116], the pest or weed control at 100 ppm in test [1] (setting [3]), in test [1] (setting [4]), in test [2] (setting [5]) and in test [2] (setting [6]) was 80 to 100% throughout.
Regarding `COc1ccnc(C(=O)N[C@H]2CCC[C@H](OCC3CC3)[C@@H](OCC3CC3)[C@H](C)OC2=O)c1O` [F117], the pest or weed control at 100 ppm was < 0% in test [1] (setting [3]), 80 to 100% in test [1] (setting [4]), 80 to 100% in test [2] (setting [5]) and 80 to 100% in test [2] (setting [6]).
Consider `CCCO[C@H]1[C@H](C)OC(=O)[C@@H](NC(=O)c2nccc(OC)c2O)CCC[C@@H]1OC1CCCC1` [F118], for which the pest or weed control at 100 ppm in test [1] (setting [3]) is 80 to 100%; in test [1] (setting [4]), 0 to 80%; in test [2] (setting [5]), 80 to 100%; in test [2] (setting [6]), 80 to 100%.
Consider `CCCO[C@H]1[C@H](C)OC(=O)[C@@H](NC(=O)c2nccc(OC)c2OCOC(C)=O)CCC[C@@H]1OC1CCCC1` [F121], for which the pest or weed control at 100 ppm in test [1] (setting [3]), in test [1] (setting [4]), in test [2] (setting [5]) and in test [2] (setting [6]) was 80 to 100% in each case.
Consider `COc1ccnc(C(=O)N[C@H]2CCC[C@H](OC3CCCC3)[C@@H](OCC(C)C)[C@H](C)OC2=O)c1OCOC(C)=O` [F122], for which the pest or weed control at 100 ppm in test [1] (setting [3]), in test [1] (setting [4]), in test [2] (setting [5]) and in test [2] (setting [6]) was 80 to 100% in each case.
For `CCCO[C@H]1[C@H](C)OC(=O)[C@@H](NC(=O)c2nccc(OC)c2OCOC(=O)C(C)C)CCC[C@@H]1OC1CCCC1` [F123], the pest or weed control at 100 ppm in test [1] (setting [3]), in test [1] (setting [4]), in test [2] (setting [5]) and in test [2] (setting [6]) was 80 to 100% throughout.

The values above are taken from patent US9681664B2, “Macrocyclic picolinamides as fungicides” (Dow Agrosciences LLC, priority 2012, dated 2017).
